In article PMC10386076, “Discovery of RC-752, a Novel Sigma-1 Receptor Antagonist with Antinociceptive Activity: A Promising Tool for Fighting Neuropathic Pain” (Pharmaceuticals, 2023):

Tested on: PC12 cells
Test: NGF-induced neurite outgrowth assay in PC12 cells
Assay type: cell-based
Conditions: 0.25 μM and 2.5 μM with 10 μM PRE-084, vs PRE-084
Experimental: At 80% confluence, the cells were either split to allow a further culture expansion or plated onto 48-well flat-bottom plates previously coated with poly-L-ornithine (Sigma Aldrich, Milan, Italy) at the final concentration of 10 μg/cm^2. The cells were plated at low density (2500 cells/well) to allow proper neurite elongation. The PC12 cells were mechanically detached from the flask to avoid cell-surface receptor cleavage and to preserve the correct binding of NGF to the TrkA receptors. To minimize detachment stress, the cells were left in PM for 24 h to recover. […] PRE-084 (10 µM), an S1R agonist, was used to verify that the effects of the selected compounds were due to the S1R modulation. In CTR conditions, the cells were incubated with the drug vehicle. For all the ligands, two replicates per concentration were performed in at least 3 experiments with different PC12 batches.
After 72 h incubation in DM, the cells were fixed with a 4% paraformaldehyde solution (pH 7.4). To allow the neurite visualization with a bright-field microscope, the cells were stained with the Harris Hematoxylin solution (Sigma Aldrich). After staining, images of six fields per well were acquired with a digital camera linked to a bright-field inverted microscope (Optika) (20× magnification). […] Only the cells bearing a neurite as long as their soma’s diameter were identified as differentiated cells. The number of differentiated cells was expressed as the percentage of differentiated cells over the total number of cells.

Row | Compound | effect on percentage of differentiated PC12 cells, co-administration with PRE-084
1 | OCC(CCN1CCOCC1)c1ccc(-c2ccccc2)cc1 (stereo not drawn) [Compound 1a, 2-([1,1’-biphenyl]-4-yl)-4-morpholinobutan-1-ol] | significantly reduced
2 | OCC(CCN1CCCCC1)c1ccc2ccccc2c1 (stereo not drawn) [Compound 2d, 2-(naphthalen-2-yl)-4-(piperidin-1-yl)butan-1-ol] | significantly reduced

Same assay, conditions: 0.25 μM and 2.5 μM, alone, vs NGF

Row | Compound | effect on NGF-induced neurite outgrowth, compound alone
3 | OCC(CCN1CCOCC1)c1ccc(-c2ccccc2)cc1 (stereo not drawn) [Compound 1a, 2-([1,1’-biphenyl]-4-yl)-4-morpholinobutan-1-ol] | did not significantly enhance
4 | OCC(CCN1CCCCC1)c1ccc2ccccc2c1 (stereo not drawn) [Compound 2d, 2-(naphthalen-2-yl)-4-(piperidin-1-yl)butan-1-ol] | did not significantly enhance

Same assay, conditions: NGF alone at 2.5 nM

Row | Compound | differentiation, % of PC12 cells [%]
5 | NGF | 22 ± 2

Same assay, conditions: PRE-084 at 10 μM, with NGF

Row | Compound | neurite outgrowth, % of PC12 cells [%]
6 | O=C(OCCN1CCOCC1)C1(c2ccccc2)CCCCC1 [PRE-084, reference compound] | 36 ± 4

Molecular target: T1, S1R (Cavia porcellus, UniProt Q60492)
T1 construct: tissue Harlan-Winkelmann, Borchen, Germany; host or cells: guinea pig brain membrane homogenate
Test: S1R radioligand displacement binding assay ([3H]-(+)-pentazocine)
Set-up: species or system guinea pig
Conditions: not given
Experimental: (R/S)-1a–3e were first evaluated for their binding affinity toward the S1R and S2R in a radioligand displacement assay. […] Nonspecific binding was determined using non-radiolabeled (+)-pentazocine and haloperidol in excess. All the binding experiments were carried out in duplicate. […] Haloperidol was used as a control compound in both assays.
Five guinea pig brains were homogenized with the potter (500–800 rpm, 10 up and down strokes) in 6 volumes of cold 0.32 M sucrose. The suspension was centrifuged at 1200× g for 10 min at 4 °C. […] This procedure was repeated twice. The final pellet was resuspended in 56 volumes of buffer and frozen ([…]) in 1.5 mL portions containing about 1.5 mg protein/mL.
The test compound solutions were prepared by dissolving approximately 10 µmol (usually 2–4 mg) of test compound in dimethyl sulfoxide (DMSO, unless otherwise specified), so that a 10 mM stock solution was obtained. To obtain the required test solutions for the assay, the DMSO stock solution was diluted with the respective assay buffer. The filtermats were presoaked in 0.5% aqueous polyethylenamine solution for 2 h at r.t. before use. All the binding experiments were carried out in duplicate in 96-well multiplates. The concentrations given are the final concentrations in the assay. […] The receptor preparation was always added last. During the incubation, the multiplates were shaken at a speed of 500–600 rpm at the specified temperature. […] During the filtration each well was washed five times with 300 µL of water. Subsequently, the filtermats were dried at 95 °C. The solid scintillator was melted on the dried filtermats at 95 °C for 5 min. After the solidifying of the scintillator at r.t., the trapped radioactivity in the filtermats was measured with the scintillation analyzer. Each position on the filtermat corresponding to one well of the multiplate was measured for 5 min with the [^3H]-counting protocol. The overall counting efficiency was 20%. The IC50 values were calculated with GraphPad Prism 3.0 (GraphPad Software, San Diego, CA, USA) by nonlinear regression analysis. The IC50 values were subsequently transformed into Ki values using the equation of Cheng and Prusoff. All the experiments were carried out in duplicates. Compounds with high S1R affinity were tested in three independent experiments, and their Ki values are given as mean value ± SEM from the three measurements. […] (22.0 Ci/mmol; Perkin-Elmer). […] The nonspecific binding was determined with 10 µM unlabeled (+)-pentazocine.

T1 sequence (Q60492 whole entry): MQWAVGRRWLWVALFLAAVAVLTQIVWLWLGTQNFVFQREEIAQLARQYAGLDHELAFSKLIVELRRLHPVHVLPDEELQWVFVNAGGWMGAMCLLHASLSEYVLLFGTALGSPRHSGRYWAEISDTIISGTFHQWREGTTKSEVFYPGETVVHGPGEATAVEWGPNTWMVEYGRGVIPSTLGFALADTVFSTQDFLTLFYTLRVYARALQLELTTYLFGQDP

Row | Compound | Ki [nM]
7 | OCC(CCN1CCOCC1)c1ccc(-c2ccccc2)cc1 (stereo not drawn) [Compound 1a, 2-([1,1’-biphenyl]-4-yl)-4-morpholinobutan-1-ol] | 13 ± 3
8 | CCN(CC)CCC(CO)c1ccc(-c2ccccc2)cc1 (stereo not drawn) [Compound 1b, 2-([1,1’-biphenyl]-4-yl)-4-(diethylamino)butan-1-ol] | 20 ± 4
9 | OCC(CCN1CCC(Cc2ccccc2)CC1)c1ccc(-c2ccccc2)cc1 (stereo not drawn) [Compound 1e, 2-([1,1’-biphenyl]-4-yl)-4-(4-benzylpiperidin-1-yl)butan-1-ol] | 94 ± 12
10 | OCC(CCN1CCOCC1)c1ccc2ccccc2c1 (stereo not drawn) [Compound 2a, 4-morpholino-2-(naphthalen-2-yl)butan-1-ol] | 206 ± 37
11 | CCN(CC)CCC(CO)c1ccc2ccccc2c1 (stereo not drawn) [Compound 2b, 4-(diethylamino)-2-(naphthalen-2-yl)butan-1-ol] | 110 ± 25
12 | CN(CCC(CO)c1ccc2ccccc2c1)Cc1ccccc1 (stereo not drawn) [Compound 2c, 4-(benzyl(methyl)amino)-2-(naphthalen-2-yl)butan-1-ol] | 9.5 ± 1.8
13 | OCC(CCN1CCCCC1)c1ccc2ccccc2c1 (stereo not drawn) [Compound 2d, 2-(naphthalen-2-yl)-4-(piperidin-1-yl)butan-1-ol] | 15 ± 6
14 | OCC(CCN1CCC(Cc2ccccc2)CC1)c1ccc2ccccc2c1 (stereo not drawn) [Compound 2e, 4-(4-benzylpiperidin-1-yl)-2-(naphthalen-2-yl)butan-1-ol] | 25 ± 4
15 | COc1ccc2cc(C(CO)CCN3CCOCC3)ccc2c1 (stereo not drawn) [Compound 3a, 2-(6-methoxynaphthalen-2-yl)-4-morpholinobutan-1-ol] | 324 ± 10
16 | CCN(CC)CCC(CO)c1ccc2cc(OC)ccc2c1 (stereo not drawn) [Compound 3b, 4-(diethylamino)-2-(6-methoxynaphthalen-2-yl)butan-1-ol] | 87 ± 28
17 | COc1ccc2cc(C(CO)CCN(C)Cc3ccccc3)ccc2c1 (stereo not drawn) [Compound 3c, 4-(benzyl(methyl)amino)-2-(6-methoxynaphthalen-2-yl)butan-1-ol] | 20 ± 3
18 | COc1ccc2cc(C(CO)CCN3CCCCC3)ccc2c1 (stereo not drawn) [Compound 3d, 2-(6-methoxynaphthalen-2-yl)-4-(piperidin-1-yl)butan-1-ol] | 38 ± 9
19 | COc1ccc2cc(C(CO)CCN3CCC(Cc4ccccc4)CC3)ccc2c1 (stereo not drawn) [Compound 3e, 4-(4-benzylpiperidin-1-yl)-2-(6-methoxynaphthalen-2-yl)butan-1-ol] | 85 ± 11

Same assay, conditions: ratio Ki S2R/Ki S1R

Row | Compound | Selectivity (Ki S2R/Ki S1R)
20 | OCC(CCN1CCOCC1)c1ccc(-c2ccccc2)cc1 (stereo not drawn) [Compound 1a, 2-([1,1’-biphenyl]-4-yl)-4-morpholinobutan-1-ol] | 24
21 | CCN(CC)CCC(CO)c1ccc(-c2ccccc2)cc1 (stereo not drawn) [Compound 1b, 2-([1,1’-biphenyl]-4-yl)-4-(diethylamino)butan-1-ol] | 34
22 | OCC(CCN1CCC(Cc2ccccc2)CC1)c1ccc(-c2ccccc2)cc1 (stereo not drawn) [Compound 1e, 2-([1,1’-biphenyl]-4-yl)-4-(4-benzylpiperidin-1-yl)butan-1-ol] | 2
23 | OCC(CCN1CCOCC1)c1ccc2ccccc2c1 (stereo not drawn) [Compound 2a, 4-morpholino-2-(naphthalen-2-yl)butan-1-ol] | 31
24 | CCN(CC)CCC(CO)c1ccc2ccccc2c1 (stereo not drawn) [Compound 2b, 4-(diethylamino)-2-(naphthalen-2-yl)butan-1-ol] | 10
25 | CN(CCC(CO)c1ccc2ccccc2c1)Cc1ccccc1 (stereo not drawn) [Compound 2c, 4-(benzyl(methyl)amino)-2-(naphthalen-2-yl)butan-1-ol] | 4
26 | OCC(CCN1CCCCC1)c1ccc2ccccc2c1 (stereo not drawn) [Compound 2d, 2-(naphthalen-2-yl)-4-(piperidin-1-yl)butan-1-ol] | 11
27 | OCC(CCN1CCC(Cc2ccccc2)CC1)c1ccc2ccccc2c1 (stereo not drawn) [Compound 2e, 4-(4-benzylpiperidin-1-yl)-2-(naphthalen-2-yl)butan-1-ol] | 13
28 | COc1ccc2cc(C(CO)CCN3CCOCC3)ccc2c1 (stereo not drawn) [Compound 3a, 2-(6-methoxynaphthalen-2-yl)-4-morpholinobutan-1-ol] | 4
29 | CCN(CC)CCC(CO)c1ccc2cc(OC)ccc2c1 (stereo not drawn) [Compound 3b, 4-(diethylamino)-2-(6-methoxynaphthalen-2-yl)butan-1-ol] | 14
30 | COc1ccc2cc(C(CO)CCN(C)Cc3ccccc3)ccc2c1 (stereo not drawn) [Compound 3c, 4-(benzyl(methyl)amino)-2-(6-methoxynaphthalen-2-yl)butan-1-ol] | 7
31 | COc1ccc2cc(C(CO)CCN3CCCCC3)ccc2c1 (stereo not drawn) [Compound 3d, 2-(6-methoxynaphthalen-2-yl)-4-(piperidin-1-yl)butan-1-ol] | 32
32 | COc1ccc2cc(C(CO)CCN3CCC(Cc4ccccc4)CC3)ccc2c1 (stereo not drawn) [Compound 3e, 4-(4-benzylpiperidin-1-yl)-2-(6-methoxynaphthalen-2-yl)butan-1-ol] | 0.6

Tested on: HeLa cells
Test: AQP-mediated osmotic water permeability assay (stopped-flow light scattering)
Conditions: pre-treatment 20 μM, heat stress 42 °C 3 h
Experimental: As an orthogonal assay to determine the functional profile of our compounds, the effect on AQP-mediated water permeability was investigated. AQPs are a family of transmembrane proteins involved in the transport of water and other small molecules (e.g., H2O2) through cell membranes. AQP functions are thus critical in ensuring reactive oxygen species (ROS) scavenging and cell survival. […] Briefly, the osmotic water permeability of HeLa cells was measured by a stopped-flow light scattering method and expressed as a percentage of k relative.
Osmotic water permeability was measured in the HeLa cell suspension by the stopped-flow light scattering method, as previously described. The experiments were performed at 25 °C on the stopped-flow apparatus (RX2000, Applied Photophysics, Leatherhead, UK) with a pneumatic drive accessory (DA.1, Applied Photophysics) straightforwardly coupled with a Varian Cary 50 spectrometer (Varian Australia Pty Ltd., Mulgrave, Australia). Briefly, scattered light intensity with a dead time of 6 ms was recorded at a wavelength of 450 nm. […] To evaluate the effect of the test compounds on water permeability, the HeLa cells were divided into different groups: (1) controls, cells incubated at r.t. (21 °C) in the presence of the same volume of methanol as that of the treated cells; (2) heat-stressed cells, cells heat-treated in a water thermostatic and shacking bath at 42 °C for 3 h; (3) heat-stressed cells pre-treated with the test compounds at a 20 µM final concentration (dissolved in methanol).

Row | Compound | effect on water permeability in heat-stressed HeLa cells
33 | OCC(CCN1CCOCC1)c1ccc(-c2ccccc2)cc1 (stereo not drawn) [Compound 1a, 2-([1,1’-biphenyl]-4-yl)-4-morpholinobutan-1-ol] | in line with that of S1R antagonists
34 | OCC(CCN1CCCCC1)c1ccc2ccccc2c1 (stereo not drawn) [Compound 2d, 2-(naphthalen-2-yl)-4-(piperidin-1-yl)butan-1-ol] | in line with that of S1R antagonists
35 | CCCN(CCC)CCc1ccc(OC)c(OCCc2ccccc2)c1 [NE-100, reference compound] | has no effect
36 | O=C(OCCN1CCOCC1)C1(c2ccccc2)CCCCC1 [PRE-084, reference compound] | effective in restoring water permeability
